Measurements as given in publication PMC12264551 (Molecular Pharmacology, 2025).
Each block holds one molecule with its values, some of them ahead of it.

How the values were obtained:
[1] = target: T1, CRLR + RAMP2 (adrenomedullin 1 receptor) (Homo sapiens, UniProt O60895+Q16602); assay: Live cell cAMP accumulation (GloSensor), COS-7 cells transfected with CRLR + RAMP2; assay type: cell-based; conditions: ATP […] + CGRP 10 nM, RAMP2, COS-7
T1 construct: RAMP plasmid gift of Dr Patrick Sexton; host or cells: COS-7

[2] = target: T2, calcitonin receptor (Homo sapiens, UniProt P30988); assay: Live cell cAMP accumulation (GloSensor), UMR-106 cells transfected with calcitonin receptor; assay type: cell-based; parameters: host or cells: UMR-106 (rat osteoblast-like) in A1; COS-7 (African monkey kidney) in A3
T2 sequence (P30988 25-474): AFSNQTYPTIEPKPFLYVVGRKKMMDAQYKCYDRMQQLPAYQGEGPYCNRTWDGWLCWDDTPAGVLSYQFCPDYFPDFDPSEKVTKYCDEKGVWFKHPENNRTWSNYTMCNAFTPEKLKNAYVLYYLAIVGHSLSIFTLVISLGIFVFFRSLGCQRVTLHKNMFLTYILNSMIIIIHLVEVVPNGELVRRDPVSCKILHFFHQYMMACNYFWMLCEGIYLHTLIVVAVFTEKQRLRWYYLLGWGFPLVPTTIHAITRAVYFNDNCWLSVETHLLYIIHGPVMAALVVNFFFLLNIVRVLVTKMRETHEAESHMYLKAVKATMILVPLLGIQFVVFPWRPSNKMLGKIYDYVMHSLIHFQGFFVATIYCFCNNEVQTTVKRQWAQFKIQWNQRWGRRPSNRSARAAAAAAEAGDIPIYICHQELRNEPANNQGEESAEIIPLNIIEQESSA

[3] = target: T3, VPAC1R (Homo sapiens, UniProt P32241); assay: Live cell cAMP accumulation (GloSensor), SaOS-2 cells with endogenous VPAC1R; assay type: cell-based; parameters: SaOS-2 cells endogenously express VPAC1R; endogenous in cells; host or cells: SaOS-2; conditions: ATP […] + VIP 1 nM
T3 sequence (P32241 31-457): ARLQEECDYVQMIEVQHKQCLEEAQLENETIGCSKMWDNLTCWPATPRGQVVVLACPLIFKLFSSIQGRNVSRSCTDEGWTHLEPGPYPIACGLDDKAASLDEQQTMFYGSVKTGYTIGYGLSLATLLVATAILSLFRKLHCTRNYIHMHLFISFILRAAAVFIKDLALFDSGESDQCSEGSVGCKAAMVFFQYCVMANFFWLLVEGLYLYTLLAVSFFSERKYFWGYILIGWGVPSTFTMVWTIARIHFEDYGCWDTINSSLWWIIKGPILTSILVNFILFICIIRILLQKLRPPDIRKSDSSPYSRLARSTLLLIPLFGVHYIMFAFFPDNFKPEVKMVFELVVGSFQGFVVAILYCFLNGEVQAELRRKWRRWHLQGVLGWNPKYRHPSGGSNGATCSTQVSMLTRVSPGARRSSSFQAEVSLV

[4] = target: T4, VPAC2R (Homo sapiens, UniProt P41587); assay: Live cell cAMP accumulation (GloSensor), COS-7 cells transfected with VPAC2R; assay type: cell-based
T4 construct: host or cells: COS-7
T4 sequence (P41587 24-438): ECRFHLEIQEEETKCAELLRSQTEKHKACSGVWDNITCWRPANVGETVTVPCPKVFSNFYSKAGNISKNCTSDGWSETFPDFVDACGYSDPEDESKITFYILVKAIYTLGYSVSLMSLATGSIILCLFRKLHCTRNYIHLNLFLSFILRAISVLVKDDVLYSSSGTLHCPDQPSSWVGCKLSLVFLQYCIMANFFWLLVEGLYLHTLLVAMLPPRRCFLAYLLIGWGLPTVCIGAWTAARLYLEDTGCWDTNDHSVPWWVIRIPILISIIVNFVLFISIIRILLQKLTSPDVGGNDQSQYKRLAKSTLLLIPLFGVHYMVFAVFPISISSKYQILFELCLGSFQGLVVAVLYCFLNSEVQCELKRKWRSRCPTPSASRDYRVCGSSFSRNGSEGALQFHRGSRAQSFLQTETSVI

[5] = target: T5, CRLR + RAMP1 (CGRP receptor) (Homo sapiens, UniProt O60894+Q16602); assay: Live cell cAMP accumulation (GloSensor), COS-7 cells transfected with CRLR + RAMP1; assay type: cell-based; conditions: RAMP1, COS-7
T5 construct: RAMP plasmid gift of Dr Patrick Sexton; host or cells: COS-7

[6] = system: PTH1R; conditions: ref Kim et al, 2018, cited from earlier work
Description: Extracellular nucleotides are known for their ability to act as purinoceptor agonists ([Burnstock, 2007]).

[7] = target: T6, PAC1R (Homo sapiens, UniProt P41586); assay: Live cell cAMP accumulation (GloSensor), COS-7 cells transfected with PAC1R; assay type: cell-based; conditions: ATP […] + PACAP 0.1 nM
T6 construct: host or cells: COS-7
T6 sequence (P41586 21-468): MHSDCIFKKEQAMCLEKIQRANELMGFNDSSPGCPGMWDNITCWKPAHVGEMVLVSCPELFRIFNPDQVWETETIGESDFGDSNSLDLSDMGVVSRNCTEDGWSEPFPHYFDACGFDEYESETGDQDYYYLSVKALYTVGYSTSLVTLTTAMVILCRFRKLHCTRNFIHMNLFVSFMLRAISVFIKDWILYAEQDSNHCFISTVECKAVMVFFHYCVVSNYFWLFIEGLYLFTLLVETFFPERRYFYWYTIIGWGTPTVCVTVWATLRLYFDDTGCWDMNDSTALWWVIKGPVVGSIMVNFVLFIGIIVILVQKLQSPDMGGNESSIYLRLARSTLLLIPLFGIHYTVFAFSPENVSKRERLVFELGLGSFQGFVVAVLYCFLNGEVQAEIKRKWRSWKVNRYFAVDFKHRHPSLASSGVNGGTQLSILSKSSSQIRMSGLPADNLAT

[8] = target: T2, calcitonin receptor; assay: Live cell cAMP accumulation (GloSensor), COS-7 cells transfected with calcitonin receptor; assay type: cell-based; parameters: host or cells: COS-7 (African monkey kidney) in A3
[9] = target: T3, VPAC1R; assay: Live cell cAMP accumulation (GloSensor), COS-7 cells transfected with VPAC1R; assay type: cell-based; parameters: host or cells: COS-7; conditions: ATP […] + VIP 0.1 nM
[10] = target: T2, calcitonin receptor; assay: Live cell cAMP accumulation (GloSensor), MCF-7 cells with endogenous calcitonin receptor; assay type: cell-based; parameters: COS-7 (African monkey kidney) in A3; conditions: calcitonin + vehicle, Fig. 1D, fraction of greatest slope, ± SEM, n = 3
[11] = system: class B GPCRs; assay: Signaling of class B GPCRs tested (summary over receptors); assay type: cell-based; conditions: CMP in place of ATP
Experimental: Cells were treated with IBMX (200–500 μM) and were further incubated for 20 minutes at room temperature. […] The emitted luminescence was measured at room temperature with a 1-second integration time at 1.5-minute intervals for a total of 45 minutes.
Data shown are means ± SEM.
To assess the time-to-maximum-slope (ie, “lag time”) for each time-course curve, we determined the time elapsed from the addition of agonist (time 0) to the first data point of the maximum slope. This procedure is illustrated in Supplemental Fig. 1.

[12] = target: calcitonin receptor, endogenous in MCF-7 cells (human (endogenous in MCF-7)) (UniProt P30988)
[13] = target: calcitonin receptor (UniProt P30988)
[14] = target: T7, VPAC1R, endogenous in SaOS-2 cells (human (endogenous in SaOS-2)) (UniProt P32241)
T7 sequence: T3 sequence (P32241 31-457)

[15] = target: T8, vasoactive intestinal polypeptide receptor 2 (UniProt P41587)
T8 sequence: T4 sequence (P41587 24-438)

[16] = target: T9, vasoactive intestinal polypeptide receptor 1 (UniProt P32241)
T9 sequence: T3 sequence (P32241 31-457)

T5 sequence (Q16602 23-461): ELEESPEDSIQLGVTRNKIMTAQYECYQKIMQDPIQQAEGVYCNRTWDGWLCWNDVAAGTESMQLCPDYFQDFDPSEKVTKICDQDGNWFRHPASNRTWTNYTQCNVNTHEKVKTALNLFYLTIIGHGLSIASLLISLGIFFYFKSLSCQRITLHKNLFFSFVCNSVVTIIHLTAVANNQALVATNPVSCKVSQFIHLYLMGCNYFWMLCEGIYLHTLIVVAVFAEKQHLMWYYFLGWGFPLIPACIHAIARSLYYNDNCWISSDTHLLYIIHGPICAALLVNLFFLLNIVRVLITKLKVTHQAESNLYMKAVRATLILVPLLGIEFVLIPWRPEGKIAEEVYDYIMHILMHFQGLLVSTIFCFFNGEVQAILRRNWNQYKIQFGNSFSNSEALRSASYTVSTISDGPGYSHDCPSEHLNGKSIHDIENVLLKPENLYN
T5 sequence (O60894 27-148): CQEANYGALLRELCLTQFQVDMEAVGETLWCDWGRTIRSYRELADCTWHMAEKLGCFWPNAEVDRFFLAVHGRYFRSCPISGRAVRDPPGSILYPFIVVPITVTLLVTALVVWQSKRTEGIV
T1 sequence (Q16602 23-461): as the sequence (Q16602 23-461) above
T1 sequence (O60895 43-175): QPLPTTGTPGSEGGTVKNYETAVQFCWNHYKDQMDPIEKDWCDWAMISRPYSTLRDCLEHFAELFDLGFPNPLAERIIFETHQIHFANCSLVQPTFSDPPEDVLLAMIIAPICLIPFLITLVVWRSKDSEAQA

Molecule: Nc1ncnc2c1ncn2[C@@H]1O[C@H](COP(=O)(O)OP(=O)(O)OP(=O)(O)O)[C@@H](O)[C@H]1O [ATP, Adenosine 5'-triphosphate]
effect on CGRP-induced cAMP accumulation [1]: markedly enhanced
effect on calcitonin-induced cAMP accumulation ([2]; ATP […] + calcitonin 1 nM): markedly enhanced
effect on VIP-induced cAMP accumulation [3]: enhanced VIP-induced cAMP accumulation
effect on VIP-induced cAMP accumulation ([4]; ATP […] + VIP 0.1 nM): markedly enhanced
Hill coefficient / slope factor ([5]; ATP + CGRP 10 nM, 4-parameter fit, n = 3): 3.2
effect on CGRP-induced cAMP accumulation ([5]; ATP […] + CGRP 10 nM): markedly enhanced
EC50 ([5]; EC50 of ATP for potentiation of CGRP signaling, ATP + CGRP 10 nM, 4-parameter fit, n = 3): 500 µM
effect on PTH1R signaling in absence of added agonist ([6]; extracellular ATP alone): no effect on PTH1R signaling in the absence of added agonist
effect on agonist-induced cAMP elevation and β-arrestin recruitment ([6]; extracellular ATP with PTH1R agonist): strongly enhance
effect on PACAP-induced cAMP accumulation [7]: markedly enhanced
effect on rate of calcitonin-induced cAMP accumulation ([8]; ATP […] + calcitonin 1 nM): markedly enhanced
effect on VIP-induced cAMP accumulation [9]: markedly enhanced

Molecule: CC(C)C[C@H](NC(=O)[C@H](CCCCN)NC(=O)CNC(=O)[C@H](CC(C)C)NC(=O)[C@@H](NC(=O)[C@@H]1CSSC[C@H](N)C(=O)N[C@@H](CO)C(=O)N[C@@H](CC(N)=O)C(=O)N[C@@H](CC(C)C)C(=O)N[C@@H](CO)C(=O)N[C@@H]([C@@H](C)O)C(=O)N1)C(C)C)C(=O)N[C@@H](CO)C(=O)N[C@@H](CCC(N)=O)C(=O)N[C@@H](CCC(=O)O)C(=O)N[C@@H](CC(C)C)C(=O)N[C@@H](Cc1c[nH]cn1)C(=O)N[C@@H](CCCCN)C(=O)N[C@@H](CC(C)C)C(=O)N[C@@H](CCC(N)=O)C(=O)N[C@H](C(=O)N[C@@H](Cc1ccc(O)cc1)C(=O)N1CCC[C@H]1C(=O)N[C@@H](CCCNC(=N)N)C(=O)N[C@H](C(=O)N[C@@H](CC(N)=O)C(=O)N[C@H](C(=O)NCC(=O)N[C@@H](CO)C(=O)NCC(=O)N[C@H](C(=O)N1CCC[C@H]1C(N)=O)[C@@H](C)O)[C@@H](C)O)[C@@H](C)O)[C@@H](C)O [calcitonin, Salmon calcitonin]
Normalized Maximum ([2]; calcitonin + vehicle, Fig. 1B, fraction of greatest slope, best-fit ± SEM, n = 3): 0.69 ± 0.04
Normalized Maximum [10]: 0.68 ± 0.05
Normalized Maximum ([8]; calcitonin + vehicle, Fig. 1F, fraction of greatest slope, ± SEM, n = 3): 0.69 ± 0.04

Molecule: Nc1ccn([C@@H]2O[C@H](COP(=O)(O)O)[C@@H](O)[C@H]2O)c(=O)n1 [CMP, cytidine 5'-monophosphate]
enhancing effect of ATP [11]: mimicked

−LogEC50 of calcitonin, maximum rate of cAMP accumulation (GloSensor), MCF-7 cells (endogenous calcitonin receptor), vehicle (Fig. 1D) (−LogEC50 (EC50 in M)) [12]: 8.19
−LogEC50 of calcitonin, maximum rate of cAMP accumulation (GloSensor), MCF-7 cells (endogenous calcitonin receptor), with ATP 1.5 mM (Fig. 1D) (−LogEC50 (EC50 in M)) [12]: 9.86
−LogEC50 of calcitonin, maximum rate of cAMP accumulation (GloSensor), COS-7 cells transfected with calcitonin receptor, vehicle (Fig. 1F) (−LogEC50 (EC50 in M)) [13]: 9.64
−LogEC50 of calcitonin, maximum rate of cAMP accumulation (GloSensor), COS-7 cells transfected with calcitonin receptor, with ATP 1.5 mM (Fig. 1F) (−LogEC50 (EC50 in M)) [13]: 10.5
−LogEC50 of calcitonin, maximum rate of cAMP accumulation (GloSensor), UMR-106 cells transfected with calcitonin receptor, vehicle (Fig. 1B) (−LogEC50 (EC50 in M)) [13]: 9.15
−LogEC50 of calcitonin, maximum rate of cAMP accumulation (GloSensor), UMR-106 cells transfected with calcitonin receptor, with ATP 1.5 mM (Fig. 1B) (−LogEC50 (EC50 in M)) [13]: 10.3
Molecule: Salmon calcitonin (peptide)

Molecule: CC[C@H](C)[C@H](NC(=O)[C@H](CO)NC(=O)[C@H](CC(N)=O)NC(=O)[C@H](CC(C)C)NC(=O)[C@H](Cc1ccc(O)cc1)NC(=O)[C@H](CCCCN)NC(=O)[C@H](CCCCN)NC(=O)[C@@H](NC(=O)[C@H](C)NC(=O)[C@H](CCSC)NC(=O)[C@H](CCC(N)=O)NC(=O)[C@H](CCCCN)NC(=O)[C@H](CCCNC(=N)N)NC(=O)[C@H](CC(C)C)NC(=O)[C@H](CCCNC(=N)N)NC(=O)[C@@H](NC(=O)[C@H](Cc1ccc(O)cc1)NC(=O)[C@H](CC(N)=O)NC(=O)[C@H](CC(=O)O)NC(=O)[C@@H](NC(=O)[C@H](Cc1ccccc1)NC(=O)[C@@H](NC(=O)[C@H](C)NC(=O)[C@H](CC(=O)O)NC(=O)[C@H](CO)NC(=O)[C@@H](N)Cc1c[nH]cn1)C(C)C)[C@@H](C)O)[C@@H](C)O)C(C)C)C(=O)N[C@@H](CC(C)C)C(=O)N[C@@H](CC(N)=O)C(N)=O [VIP, vasoactive intestinal peptide]
Normalized Maximum ([4]; VIP + vehicle, Fig. 6H, VPAC2R, fraction of greatest slope, ± SEM, n = 3-5): 0.94 ± 0.01

−LogEC50 of VIP, maximum rate of cAMP accumulation (GloSensor), SaOS-2 cells (endogenous VPAC1R), vehicle (Fig. 6K) (−LogEC50 (EC50 in M)) [14]: 8.35
−LogEC50 of VIP, maximum rate of cAMP accumulation (GloSensor), SaOS-2 cells (endogenous VPAC1R), with ATP 1.5 mM (Fig. 6K) (−LogEC50 (EC50 in M)) [14]: 9.24
−LogEC50 of VIP, maximum rate of cAMP accumulation (GloSensor), COS-7 cells transfected with VPAC2R, vehicle (Fig. 6H) (−LogEC50 (EC50 in M)) [15]: 8.9
−LogEC50 of VIP, maximum rate of cAMP accumulation (GloSensor), COS-7 cells transfected with VPAC2R, with ATP 1.5 mM (Fig. 6H) (−LogEC50 (EC50 in M)) [15]: 9.42
−LogEC50 of VIP, maximum rate of cAMP accumulation (GloSensor), COS-7 cells transfected with VPAC1R, vehicle (Fig. 6E) (−LogEC50 (EC50 in M)) [16]: 9.56
−LogEC50 of VIP, maximum rate of cAMP accumulation (GloSensor), COS-7 cells transfected with VPAC1R, with ATP 1.5 mM (Fig. 6E) (−LogEC50 (EC50 in M)) [16]: 10.3
B1: vasoactive intestinal peptide (peptide)
peptide: HSDAVFTDNYTRLRKQMAVKKYLNSILN
